Assays:
[1] = target: ER (Homo sapiens (Human), UniProt P03372); experiment: In-cell western blot analysis of relative ER percentage (Compounds B1-B278); assay type: cell-based; conditions: ER degradation, 16 hours, read-out: ICW DC50
In short: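 In-cell western: after 16 h compound exposure (0.5% DMSO final), fixed and permeabilized cells are probed with anti-ER plus anti-GAPDH and near-infrared secondaries. Relative ER percentage compares treated wells against untreated and DMSO wells taken as 100%; seeding 40,000 or 10,000 cells/well.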

[2] = Cell growth assay (WST-8) (Compounds B1-B278); assay type: cell-based; conditions: 96 h; T47D cell line; WST-8, 4 days; read-out: Cell Growth Inhibition in T47D cell line IC50
In short: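 Read-out is WST-8 absorbance at 450 nm (2.5 h, 37° C) as a fraction of vehicle control, from three separate repeats. Compound exposure lasted 4 days, starting one day after plating 1500 cells/well.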

Sequence of ER (P03372 whole entry): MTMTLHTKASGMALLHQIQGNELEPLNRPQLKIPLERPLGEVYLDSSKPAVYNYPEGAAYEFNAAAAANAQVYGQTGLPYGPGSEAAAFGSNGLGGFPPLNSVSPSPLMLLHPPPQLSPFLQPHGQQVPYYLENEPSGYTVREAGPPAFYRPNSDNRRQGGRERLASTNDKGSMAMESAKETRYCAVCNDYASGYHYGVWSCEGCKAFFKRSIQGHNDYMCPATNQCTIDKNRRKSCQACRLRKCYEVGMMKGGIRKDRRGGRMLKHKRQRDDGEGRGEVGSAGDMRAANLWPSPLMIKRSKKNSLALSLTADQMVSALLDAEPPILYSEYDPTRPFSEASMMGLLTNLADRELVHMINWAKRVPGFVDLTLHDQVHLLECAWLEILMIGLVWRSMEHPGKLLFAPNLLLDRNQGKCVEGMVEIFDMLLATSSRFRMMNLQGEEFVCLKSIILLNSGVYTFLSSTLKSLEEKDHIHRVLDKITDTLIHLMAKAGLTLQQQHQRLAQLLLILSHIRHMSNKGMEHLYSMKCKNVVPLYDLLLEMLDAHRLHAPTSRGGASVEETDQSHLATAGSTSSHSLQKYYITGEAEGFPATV

DC50 [1] | Compound | IC50 [2]
> 100 nM | C[C@@H]1Cc2c([nH]c3ccccc23)[C@@H](c2cnc(N3CCC4(CCC(N5CCN6c7ccc8c(c7OC[C@H]6C5)CN(C5CCC(=O)NC5=O)C8=O)CC4)CC3)nc2)N1CC(F)F (stereo partly drawn) [Compound B163, 3-((R)-7-(3-(5-((1R,3R)-2-(2,2-difluoroethyl)-3-methyl-2,3,4,9-tetrahydro-1H-pyrido[3,4-b]indol-1-yl)pyrimidin-2-yl)-3-azaspiro[5.5]undecan-9-yl)-1-oxo-1,3,5,5a,6,7,8,9-octahydro-2H-pyrazino[1′,2′:4,5][1,4]oxazino[2,3-e]isoindol-2-yl)piperidine-2,6-dione] | > 10 nM
> 100 nM | C[C@@H]1Cc2c([nH]c3ccccc23)[C@@H](c2cnc(N3CCC4(CCC(N5CCN6c7ccc8c(c7OC[C@H]6C5)CN(C5CCC(=O)NC5=O)C8=O)CC4)CC3)nc2)N1CC(C)(C)F (stereo partly drawn) [Compound B164, 3-((R)-7-(3-(5-((1R,3R)-2-(2-fluoro-2-methylpropyl)-3-methyl-2,3,4,9-tetrahydro-1H-pyrido[3,4-b]indol-1-yl)pyrimidin-2-yl)-3-azaspiro[5.5]undecan-9-yl)-1-oxo-1,3,5,5a,6,7,8,9-octahydro-2H-pyrazino[1′,2′:4,5][1,4]oxazino[2,3-e]isoindol-2-yl)piperidine-2,6-dione] | 1 to 10 nM
10 to 100 nM | C[C@@H]1Cc2c([nH]c3ccccc23)[C@@H](c2cnc(N3CCC4(CC3)CC(N3CCN5c6ccc7c(c6OC[C@H]5C3)CN(C3CCC(=O)NC3=O)C7=O)CO4)nc2)N1CC(C)(C)F (stereo partly drawn) [Compound B165, 3-((5aR)-7-(8-(5-((1R,3R)-2-(2-fluoro-2-methylpropyl)-3-methyl-2,3,4,9-tetrahydro-1H-pyrido[3,4-b]indol-1-yl)pyrimidin-2-yl)-1-oxa-8-azaspiro[4.5]decan-3-yl)-1-oxo-1,3,5,5a,6,7,8,9-octahydro-2H-pyrazino[1′,2′:4,5][1,4]oxazino[2,3-e]isoindol-2-yl)piperidine-2,6-dione] | 1 to 10 nM
10 to 100 nM | C[C@@H]1Cc2c([nH]c3ccccc23)[C@@H](c2cnc(N3CCC4(CC3)CC(N3CCN5c6ccc7c(c6OC[C@H]5C3)CN(C3CCC(=O)NC3=O)C7=O)CO4)nc2)N1CC(F)F (stereo partly drawn) [Compound B166, 3-((5aR)-7-(8-(5-((1R,3R)-2-(2,2-difluoroethyl)-3-methyl-2,3,4,9-tetrahydro-1H-pyrido[3,4-b]indol-1-yl)pyrimidin-2-yl)-1-oxa-8-azaspiro[4.5]dccan-3-yl)-1-oxo-1,3,5,5a,6,7,8,9-octahydro-2H-pyrazino[1′,2′:4,5][1,4]oxazino[2,3-e]isoindol-2-yl)piperidine-2,6-dione] | 1 to 10 nM
> 100 nM | C[C@@H]1Cc2c([nH]c3ccccc23)[C@@H](c2cnc(N3CC4(CCC(CN5Cc6cc7c(cc6C5)C(=O)N(C5CCC(=O)NC5=O)C7=O)CC4)C3)nc2)N1CC(F)(F)CO (stereo partly drawn) [Compound B167, 6-((2-(5-((1R,3R)-2-(2,2-difluoro-3-hydroxypropyl)-3-methyl-2,3,4,9-tetrahydro-1H-pyrido[3,4-b]indol-1-yl)pyrimidin-2-yl)-2-azaspiro[3.5]nonan-7-yl)methyl)-2-(2,6-dioxopiperidin-3-yl)-6,7-dihydropyrrolo[3,4-f]isoindole-1,3(2H,5H)-dione] | > 10 nM
< 10 nM | C[C@@H]1Cc2c([nH]c3ccccc23)[C@@H](c2cnc(N3CCC4(CC3)CC(CN3CCN5c6ccc7c(c6OC[C@H]5C3)CN(C3CCC(=O)NC3=O)C7=O)CO4)nc2)N1CC(C)(C)F (stereo partly drawn) [Compound B168, 3-((5aR)-7-((8-(5-((1R,3R)-2-(2-fluoro-2-methylpropyl)-3-methyl-2,3,4,9-tetrahydro-1H-pyrido[3,4-b]indol-1-yl)pyrimidin-2-yl)-1-oxa-8-azaspiro[4.5]decan-3-yl)methyl)-1-oxo-1,3,5,5a,6,7,8,9-octahydro-2H-pyrazino[1′,2′:4,5][1,4]oxazino[2,3-e]isoindol-2-yl)piperidine-2,6-dione] | 1 to 10 nM
> 100 nM | C[C@@H]1Cc2c([nH]c3ccccc23)[C@@H](c2ccc(N3CCC4(CC3)CC(CN3CCN5c6ccc7c(c6OC[C@H]5C3)CN(C3CCC(=O)NC3=O)C7=O)C4)nc2)N1CC(F)F (stereo partly drawn) [Compound B169, 3-((R)-7-((7-(5-((1R,3R)-2-(2,2-difluoroethyl)-3-methyl-2,3,4,9-tetrahydro-1H-pyrido[3,4-b]indol-1-yl)pyridin-2-yl)-7-azaspiro[3.5]nonan-2-yl)methyl)-1-oxo-1,3,5,5a,6,7,8,9-octahydro-2H-pyrazino[1′,2′:4,5][1,4]oxazino[2,3-e]isoindol-2-yl)piperidine-2,6-dione] | 1 to 10 nM
> 100 nM | COc1cc(N2CCC3(CCN(C(=O)CN4Cc5cc6c(cc5C4)C(=O)N(C4CCC(=O)NC4=O)C6=O)CC3)CC2)ccc1[C@@H]1c2[nH]c3ccccc3c2C[C@@H](C)N1CC(C)(C)F (stereo partly drawn) [Compound B170, 2-(2,6-dioxopiperidin-3-yl)-6-(2-(9-(4-((1R,3R)-2-(2-fluoro-2-methylpropyl)-3-methyl-2,3,4,9-tetrahydro-1H-pyrido[3,4-b]indol-1-yl)-3-methoxyphenyl)-3,9-diazaspiro[5.5]undecan-3-yl)-2-oxoethyl)-6,7-dihydropyrrolo[3,4-f]isoindole-1,3(2H,5H)-dione] | 1 to 10 nM
< 10 nM | C[C@@H]1Cc2c([nH]c3ccccc23)[C@@H](c2cnc(N3CCC4(CC3)CC(CN3CCN5c6cc7c(cc6OC[C@@H]5C3)C(=O)N(C3CCC(=O)NC3=O)C7)CO4)nc2)N1CC(F)(F)CO (stereo partly drawn) [Compound B171, 3-((4aS)-3-((8-(5-((1R,3R)-2-(2,2-difluoro-3-hydroxypropyl)-3-methyl-2,3,4,9-tetrahydro-1H-pyrido[3,4-b]indol-1-yl)pyrimidin-2-yl)-1-oxa-8-azaspiro[4.5]dccan-3-yl)methyl)-8-oxo-1,2,3,4,4a,5,8,10-octahydro-9H-pyrazino[1′,2′:4,5][1,4]oxazino[2,3-f]isoindol-9-yl)piperidine-2,6-dione] | > 10 nM
> 100 nM | C[C@@H]1Cc2c([nH]c3ccccc23)[C@@H](c2cnc(N3CCC4(CC3)CC(CN3CCN5c6ccc7c(c6OC[C@H]5C3)CN(C3CCC(=O)NC3=O)C7=O)CO4)nc2)N1CC(F)(F)CO (stereo partly drawn) [Compound B172, 3-((5aR)-7-((8-(5-((1R,3R)-2-(2,2-difluoro-3-hydroxypropyl)-3-methyl-2,3,4,9-tetrahydro-1H-pyrido[3,4-b]indol-1-yl)pyrimidin-2-yl)-1-oxa-8-azaspiro[4.5]decan-3-yl)methyl)-1-oxo-1,3,5,5a,6,7,8,9-octahydro-2H-pyrazino[1′,2′:4,5][1,4]oxazino[2,3-e]isoindol-2-yl)piperidine-2,6-dione] | < 1 nM
> 100 nM | C[C@@H]1Cc2c([nH]c3ccccc23)[C@@H](c2c(F)cc(N3CCC(CN4CCN5c6c(ccc7c6CN(C6CCC(=O)NC6=O)C7=O)OC[C@@H]5C4)CC3)cc2F)N1CC(F)F (stereo partly drawn) [Compound B173, 3-((S)-9-((1-(4-((1R,3R)-2-(2,2-difluoroethyl)-3-methyl-2,3,4,9-tetrahydro-1H-pyrido[3,4-b]indol-1-yl)-3,5-difluorophenyl)piperidin-4-yl)methyl)-3-oxo-1,3,7,7a,8,9,10,11-octahydro-2H-pyrazino[1′,2′:4,5][1,4]oxazino[3,2-e]isoindol-2-yl)piperidine-2,6-dione] | < 1 nM
< 10 nM | C[C@@H]1Cc2c([nH]c3ccccc23)[C@@H](c2c(F)cc(N3CCC4(CC3)CN(C(=O)CN3CCN5c6ccc7c(c6OC[C@H]5C3)CN(C3CCC(=O)NC3=O)C7=O)C4)cc2F)N1CC(F)F (stereo partly drawn) [Compound B174, 3-((R)-7-(2-(7-(4-((1R,3R)-2-(2,2-difluoroethyl)-3-methyl-2,3,4,9-tetrahydro-1H-pyrido[3,4-b]indol-1-yl)-3,5-difluorophenyl)-2,7-diazaspiro[3.5]nonan-2-yl)-2-oxoethyl)-1-oxo-1,3,5,5a,6,7,8,9-octahydro-2H-pyrazino[1′,2′:4,5][1,4]oxazino[2,3-e]isoindol-2-yl)piperidine-2,6-dione] | < 1 nM
< 10 nM | C[C@@H]1Cc2c([nH]c3ccccc23)[C@@H](c2cnc(N3CCC4(CC3)CN(CC(=O)N3CCN5c6ccc7c(c6OC[C@H]5C3)CN(C3CCC(=O)NC3=O)C7=O)C4)nc2)N1CC(F)(F)F (stereo partly drawn) [Compound B175, 3-((R)-7-(2-(7-(5-((1R,3R)-3-methyl-2-(2,2,2-trifluoroethyl)-2,3,4,9-tetrahydro-1H-pyrido[3,4-b]indol-1-yl)pyrimidin-2-yl)-2,7-diazaspiro[3.5]nonan-2-yl)acetyl)-1-oxo-1,3,5,5a,6,7,8,9-octahydro-2H-pyrazino[1′,2′:4,5][1,4]oxazino[2,3-e]isoindol-2-yl)piperidine-2,6-dione] | 1 to 10 nM
< 10 nM | C[C@@H]1Cc2c([nH]c3ccccc23)[C@@H](c2cnc(N3CCC4(CC3)CN(C(=O)CN3CCN5c6ccc7c(c6OC[C@H]5C3)CN(C3CCC(=O)NC3=O)C7=O)C4)nc2)N1CC(F)F (stereo partly drawn) [Compound B176, 3-((R)-7-(2-(7-(5-((1R,3R)-2-(2,2-difluoroethyl)-3-methyl-2,3,4,9-tetrahydro-1H-pyrido[3,4-b]indol-1-yl)pyrimidin-2-yl)-2,7-diazaspiro[3.5]nonan-2-yl)-2-oxoethyl)-1-oxo-1,3,5,5a,6,7,8,9-octahydro-2H-pyrazino[1′,2′:4,5][1,4]oxazino[2,3-e]isoindol-2-yl)piperidine-2,6-dione] | 1 to 10 nM
